Where two headings read alike, the source gives them in different places. Where only a bound is given, the exact number is not on record here.

One test has as its target T1, VEGFRII (Homo sapiens, UniProt P35968).
T1 construct: endogenous in cells; host or cells: TT human medullary thyroid carcinoma cells
Put plainly: Western blot of VEGFRII phosphorylation in TT cells. The test is classed as cell-based. To be noted: 2 hr, Western blotting. As for the experimental part:
Protein lysates were prepared according to standard procedures. Briefly, cells were lysed in a buffer containing 50 mM N-2-hydroxyethylpiperazine-N'-2-ethanesulfonic acid (HEPES; pH 7.5), 1% (vol/vol) Triton X-100, 150 mM NaCl, 5 mM EGTA, 50 mM NaF, 20 mM sodium pyrophosphate, 1 mM sodium vanadate, 2 mM phenylmethylsulphonyl fluoride (PMSF) and 1 μg/ml aprotinin. Lysates were clarified by centrifugation at 10,000 Xg for 15 min. […] Immune complexes were detected with the enhanced chemiluminescence kit (Amersham Pharmacia Biotech, Little Chalfort, UK). Signal intensity was analyzed at the Phosphorimager (Typhoon 8600, Amersham Pharmacia Biotech) interfaced with the ImageQuant software. Anti-phospho-SHC (#07206), that recognizes SHC proteins when phosphorylated on Y317 was from Merck Millipore (Darmstadt, Germany). Anti-MAPK (#4695) and anti-phospho-MAPK (#4370), specific for p44/42MAPK (ERK1/2) phosphorylated on Thr202/Tyr204, anti-VEGFRII (#2479) and anti-phospho-VEGFRII (#2478), that recognizes VEGF Receptor 2 when phosphorylated on Y1175, were from Cell Signaling (Beverly, MA).
VEGFRII inhibition is believed to contribute, based on its anti-angiogenic effect, to clinical activity of approved RET inhibitors such as vandetanib and cabozantinib.
The blots were normalized using anti-VEGFRII (αVEGFRII) antibody. (JPG) Click here for additional data file.
A general note: A western blot detects proteins with antibodies after separation by electrophoresis.

The target of a further test is RET/M918T (Homo sapiens, UniProt P07949, M918T). As to the kind of experiment: cell-based. To be noted: NIH3T3, read-out: inhibition of RET/M918T protein.
A further test concerns RET/C634Y. To be noted: 10 nM, 2 hr, NIH3T3, Western blotting, data not shown.
For another test, the system named is TPC-1 cells. As to the kind of experiment: Growth curves, TPC-1 papillary thyroid carcinoma cells (RET/PTC1). To be noted: Homo sapiens, TPC1; 2% serum; 95% CI in brackets; read-out: Growth inhibition IC50 dose TPC-1. The format is cell-based. As for the experimental part: TT human cell line was obtained in 2002 from ATCC and authenticated by RET genotyping; it was derived from a MTC and harbors a cysteine 634 to tryptophan (C634W) RET mutation. TT cells were grown in RPMI 1640 supplemented with 20% fetal calf serum (GIBCO). MZ-CRC-1 human cells were kindly provided in 2009 by Robert F. Gagel (MD Anderson, Houston, TX) and authenticated by RET genotyping. […] Nthy-ori 3–1, a human thyroid follicular epithelial cell line immortalized by the SV40 large T gene, was obtained from European Collection of Cell Cultures (ECACC) (Wiltshire, UK) in 2010.
To compare cell growth, we performed unpaired Student’s t test using the Instat software program (Graphpad Software Inc). P values were two-sided, and differences were considered statistically significant at P <.02. IC50 doses were calculated through a curve fitting analysis from last day values using the PRISM software program (Graphpad Software Inc).

Test [1] deals with T2, KinomeScan kinase panel (Homo sapiens, UniProt P00533, G719S).
T2 construct: purchased DiscoveRx (KinomeScan)
Put plainly: KinomeScan kinase panel, single concentration 10 µM. The test is classed as binding. To be noted: EGFR(G719S), 10 µM.

Test [2] concerns the target T3, KinomeScan kinase panel (Homo sapiens, UniProt P53778).
T3 construct: purchased DiscoveRx (KinomeScan)
T3 sequence (P53778 1-367): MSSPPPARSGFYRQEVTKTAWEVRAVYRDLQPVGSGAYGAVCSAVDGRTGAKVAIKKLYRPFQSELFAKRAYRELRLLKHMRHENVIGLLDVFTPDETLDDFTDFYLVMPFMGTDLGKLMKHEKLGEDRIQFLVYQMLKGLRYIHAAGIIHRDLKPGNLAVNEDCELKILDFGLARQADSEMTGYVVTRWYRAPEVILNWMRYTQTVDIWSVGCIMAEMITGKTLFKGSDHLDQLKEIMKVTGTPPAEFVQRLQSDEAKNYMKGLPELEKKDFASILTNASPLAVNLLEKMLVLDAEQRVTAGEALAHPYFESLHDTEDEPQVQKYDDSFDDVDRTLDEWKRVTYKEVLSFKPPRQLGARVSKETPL
The test is described as above. To be noted: p38-gamma, 10 µM; read-out: score (%). The test is classed as binding.

Test [3] has as its target T4, KinomeScan kinase panel (Homo sapiens, UniProt P19525).
T4 construct: purchased DiscoveRx (KinomeScan)
The description is as above. The test is classed as binding. To be noted: 10 µM.

Test [4] has as its target T5, KinomeScan kinase panel (Homo sapiens, UniProt P10721, T670I/V559D).
T5 construct: purchased DiscoveRx (KinomeScan)
The test is described as above. The test is classed as binding. To be noted: KIT(V559D.T670I), 10 µM; read-out: score (%).

The target of test [5] is T6, KinomeScan kinase panel (Homo sapiens, UniProt O94806).
T6 construct: purchased DiscoveRx (KinomeScan)
T6 sequence (O94806 1-890): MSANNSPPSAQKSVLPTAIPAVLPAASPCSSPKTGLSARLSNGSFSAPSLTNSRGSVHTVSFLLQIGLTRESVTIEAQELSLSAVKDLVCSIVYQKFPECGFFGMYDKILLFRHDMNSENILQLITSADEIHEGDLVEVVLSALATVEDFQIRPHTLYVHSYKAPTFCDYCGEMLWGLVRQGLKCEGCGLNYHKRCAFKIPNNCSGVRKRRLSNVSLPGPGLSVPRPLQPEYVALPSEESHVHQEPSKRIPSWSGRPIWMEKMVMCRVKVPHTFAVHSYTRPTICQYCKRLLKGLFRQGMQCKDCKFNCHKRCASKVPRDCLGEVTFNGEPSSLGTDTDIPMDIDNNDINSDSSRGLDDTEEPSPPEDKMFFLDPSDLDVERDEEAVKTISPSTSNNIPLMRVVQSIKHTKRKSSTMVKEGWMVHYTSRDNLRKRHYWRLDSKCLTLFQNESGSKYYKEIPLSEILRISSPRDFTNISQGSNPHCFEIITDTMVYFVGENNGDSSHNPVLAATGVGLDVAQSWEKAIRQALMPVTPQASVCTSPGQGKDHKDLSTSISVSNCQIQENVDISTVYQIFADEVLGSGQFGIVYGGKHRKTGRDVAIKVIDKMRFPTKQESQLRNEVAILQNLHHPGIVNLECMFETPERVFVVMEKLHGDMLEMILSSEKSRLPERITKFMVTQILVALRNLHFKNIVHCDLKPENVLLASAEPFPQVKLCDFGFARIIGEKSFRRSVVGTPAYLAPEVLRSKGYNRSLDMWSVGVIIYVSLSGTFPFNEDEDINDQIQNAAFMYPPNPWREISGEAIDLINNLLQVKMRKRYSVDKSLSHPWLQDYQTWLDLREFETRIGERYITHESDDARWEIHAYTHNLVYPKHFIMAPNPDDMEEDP
Described as above. The format is binding. To be noted: read-out: score (%).

Test [6] concerns the target T7, KinomeScan kinase panel (Homo sapiens, UniProt P48730).
T7 construct: purchased DiscoveRx (KinomeScan)
Described as above. The test is classed as binding. To be noted: CSNK1D, 10 µM; read-out: score (%).

RET/M918T, sequence (P07949 29-1072 isoform P07949-2 M918T limits assumed): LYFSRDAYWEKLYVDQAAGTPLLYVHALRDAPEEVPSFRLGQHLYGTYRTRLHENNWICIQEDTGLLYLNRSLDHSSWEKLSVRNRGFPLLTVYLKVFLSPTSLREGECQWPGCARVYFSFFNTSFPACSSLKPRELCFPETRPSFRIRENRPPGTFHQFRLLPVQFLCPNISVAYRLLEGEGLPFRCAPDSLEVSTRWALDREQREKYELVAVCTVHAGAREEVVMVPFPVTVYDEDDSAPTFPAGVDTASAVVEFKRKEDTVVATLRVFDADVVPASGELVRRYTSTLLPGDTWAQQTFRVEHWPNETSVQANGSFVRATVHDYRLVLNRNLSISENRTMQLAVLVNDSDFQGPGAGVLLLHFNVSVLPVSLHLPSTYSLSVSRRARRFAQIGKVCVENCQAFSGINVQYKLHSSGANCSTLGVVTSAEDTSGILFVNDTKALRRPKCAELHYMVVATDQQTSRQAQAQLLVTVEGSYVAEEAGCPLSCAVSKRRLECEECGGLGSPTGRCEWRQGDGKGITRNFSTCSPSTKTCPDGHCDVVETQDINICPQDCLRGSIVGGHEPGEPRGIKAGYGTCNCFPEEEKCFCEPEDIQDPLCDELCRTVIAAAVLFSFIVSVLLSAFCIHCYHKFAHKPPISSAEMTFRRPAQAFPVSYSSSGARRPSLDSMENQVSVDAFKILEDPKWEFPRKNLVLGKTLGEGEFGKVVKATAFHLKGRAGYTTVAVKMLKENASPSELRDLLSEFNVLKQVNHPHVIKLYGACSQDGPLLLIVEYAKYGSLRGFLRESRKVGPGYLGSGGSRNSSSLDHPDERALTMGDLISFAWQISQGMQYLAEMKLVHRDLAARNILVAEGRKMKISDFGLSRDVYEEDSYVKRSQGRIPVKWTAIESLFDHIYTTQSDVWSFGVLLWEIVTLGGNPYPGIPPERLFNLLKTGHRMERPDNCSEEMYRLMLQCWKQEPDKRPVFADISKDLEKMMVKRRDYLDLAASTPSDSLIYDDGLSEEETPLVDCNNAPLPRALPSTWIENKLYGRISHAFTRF
T4 sequence (P19525 whole entry): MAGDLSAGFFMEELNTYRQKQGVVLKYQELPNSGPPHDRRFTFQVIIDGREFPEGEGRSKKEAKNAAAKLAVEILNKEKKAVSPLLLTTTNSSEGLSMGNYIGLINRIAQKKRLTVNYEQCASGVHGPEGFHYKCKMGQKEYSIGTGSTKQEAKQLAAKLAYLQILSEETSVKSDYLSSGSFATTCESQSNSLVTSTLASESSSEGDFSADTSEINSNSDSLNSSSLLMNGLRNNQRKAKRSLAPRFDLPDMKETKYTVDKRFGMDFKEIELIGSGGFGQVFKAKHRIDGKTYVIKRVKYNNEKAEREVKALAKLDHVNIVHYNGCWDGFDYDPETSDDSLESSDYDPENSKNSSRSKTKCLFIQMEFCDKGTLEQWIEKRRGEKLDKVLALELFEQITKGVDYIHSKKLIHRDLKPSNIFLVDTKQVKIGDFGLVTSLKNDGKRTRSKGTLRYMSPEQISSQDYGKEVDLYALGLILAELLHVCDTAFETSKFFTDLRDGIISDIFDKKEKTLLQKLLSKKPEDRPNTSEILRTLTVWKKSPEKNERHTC
T2 sequence (P00533 25-1210 G719S): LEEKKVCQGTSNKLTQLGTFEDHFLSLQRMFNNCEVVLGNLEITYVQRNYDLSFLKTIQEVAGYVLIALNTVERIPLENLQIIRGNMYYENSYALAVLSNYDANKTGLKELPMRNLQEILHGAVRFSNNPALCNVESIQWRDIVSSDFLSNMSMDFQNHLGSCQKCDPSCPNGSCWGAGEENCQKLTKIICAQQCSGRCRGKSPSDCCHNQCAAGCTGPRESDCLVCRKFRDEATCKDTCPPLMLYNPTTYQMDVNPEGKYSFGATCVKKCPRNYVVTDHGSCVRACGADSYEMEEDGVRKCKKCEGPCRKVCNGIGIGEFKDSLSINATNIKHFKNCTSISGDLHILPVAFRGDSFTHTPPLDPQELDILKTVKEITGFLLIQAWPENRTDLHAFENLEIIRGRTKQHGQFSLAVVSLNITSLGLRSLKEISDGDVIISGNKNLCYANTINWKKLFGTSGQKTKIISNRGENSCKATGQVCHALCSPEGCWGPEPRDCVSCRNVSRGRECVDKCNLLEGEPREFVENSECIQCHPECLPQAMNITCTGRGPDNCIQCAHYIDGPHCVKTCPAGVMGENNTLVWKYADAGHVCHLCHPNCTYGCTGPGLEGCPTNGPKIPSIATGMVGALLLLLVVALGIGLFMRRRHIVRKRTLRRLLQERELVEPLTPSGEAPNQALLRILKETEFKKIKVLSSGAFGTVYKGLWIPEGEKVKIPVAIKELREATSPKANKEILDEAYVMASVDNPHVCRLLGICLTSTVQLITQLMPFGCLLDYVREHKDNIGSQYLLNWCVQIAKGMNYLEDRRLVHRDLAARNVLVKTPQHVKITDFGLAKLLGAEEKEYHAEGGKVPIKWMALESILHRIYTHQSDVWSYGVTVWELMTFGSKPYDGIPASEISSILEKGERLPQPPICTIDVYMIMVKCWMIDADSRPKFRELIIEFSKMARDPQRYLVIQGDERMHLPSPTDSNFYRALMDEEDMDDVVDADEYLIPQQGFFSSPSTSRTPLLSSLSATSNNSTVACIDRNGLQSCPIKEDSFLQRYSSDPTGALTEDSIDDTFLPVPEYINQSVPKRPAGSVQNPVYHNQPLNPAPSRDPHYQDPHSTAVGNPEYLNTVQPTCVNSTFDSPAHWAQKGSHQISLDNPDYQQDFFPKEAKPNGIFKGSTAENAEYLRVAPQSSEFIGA
T1 sequence (P35968 20-1356): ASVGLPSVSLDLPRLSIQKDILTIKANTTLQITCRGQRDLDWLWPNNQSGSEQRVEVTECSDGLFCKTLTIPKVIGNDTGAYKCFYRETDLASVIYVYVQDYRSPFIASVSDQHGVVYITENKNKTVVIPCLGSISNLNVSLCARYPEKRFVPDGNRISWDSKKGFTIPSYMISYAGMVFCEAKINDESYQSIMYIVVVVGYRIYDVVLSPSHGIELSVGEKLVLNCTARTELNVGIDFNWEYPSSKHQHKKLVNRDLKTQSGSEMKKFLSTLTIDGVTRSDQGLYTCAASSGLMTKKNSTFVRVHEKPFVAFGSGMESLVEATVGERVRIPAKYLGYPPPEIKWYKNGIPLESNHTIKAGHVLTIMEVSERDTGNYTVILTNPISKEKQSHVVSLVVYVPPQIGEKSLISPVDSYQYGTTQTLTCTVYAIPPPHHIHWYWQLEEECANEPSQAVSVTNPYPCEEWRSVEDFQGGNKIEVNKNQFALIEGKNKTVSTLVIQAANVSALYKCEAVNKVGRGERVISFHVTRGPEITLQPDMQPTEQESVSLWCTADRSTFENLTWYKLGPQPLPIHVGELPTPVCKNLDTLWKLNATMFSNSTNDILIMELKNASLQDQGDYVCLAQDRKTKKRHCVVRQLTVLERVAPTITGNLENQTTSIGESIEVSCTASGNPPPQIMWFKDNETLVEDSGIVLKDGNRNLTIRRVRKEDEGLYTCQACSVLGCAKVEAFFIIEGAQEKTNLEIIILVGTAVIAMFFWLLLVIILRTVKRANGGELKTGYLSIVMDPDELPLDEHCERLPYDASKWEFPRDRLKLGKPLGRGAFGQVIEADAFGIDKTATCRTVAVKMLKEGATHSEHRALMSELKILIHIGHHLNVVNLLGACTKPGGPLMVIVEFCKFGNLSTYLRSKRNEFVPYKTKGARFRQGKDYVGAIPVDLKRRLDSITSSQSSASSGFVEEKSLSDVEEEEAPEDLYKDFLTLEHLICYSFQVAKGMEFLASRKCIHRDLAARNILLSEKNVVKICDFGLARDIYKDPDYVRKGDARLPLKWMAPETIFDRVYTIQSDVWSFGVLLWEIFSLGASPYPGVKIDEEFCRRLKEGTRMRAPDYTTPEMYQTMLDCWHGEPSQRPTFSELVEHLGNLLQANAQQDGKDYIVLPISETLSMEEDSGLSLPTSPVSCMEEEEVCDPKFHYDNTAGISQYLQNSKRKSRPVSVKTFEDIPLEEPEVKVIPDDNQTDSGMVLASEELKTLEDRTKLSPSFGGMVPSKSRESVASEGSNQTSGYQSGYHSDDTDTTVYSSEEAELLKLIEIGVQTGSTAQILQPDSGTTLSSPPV
T5 sequence (P10721 26-976 V559D/T670I): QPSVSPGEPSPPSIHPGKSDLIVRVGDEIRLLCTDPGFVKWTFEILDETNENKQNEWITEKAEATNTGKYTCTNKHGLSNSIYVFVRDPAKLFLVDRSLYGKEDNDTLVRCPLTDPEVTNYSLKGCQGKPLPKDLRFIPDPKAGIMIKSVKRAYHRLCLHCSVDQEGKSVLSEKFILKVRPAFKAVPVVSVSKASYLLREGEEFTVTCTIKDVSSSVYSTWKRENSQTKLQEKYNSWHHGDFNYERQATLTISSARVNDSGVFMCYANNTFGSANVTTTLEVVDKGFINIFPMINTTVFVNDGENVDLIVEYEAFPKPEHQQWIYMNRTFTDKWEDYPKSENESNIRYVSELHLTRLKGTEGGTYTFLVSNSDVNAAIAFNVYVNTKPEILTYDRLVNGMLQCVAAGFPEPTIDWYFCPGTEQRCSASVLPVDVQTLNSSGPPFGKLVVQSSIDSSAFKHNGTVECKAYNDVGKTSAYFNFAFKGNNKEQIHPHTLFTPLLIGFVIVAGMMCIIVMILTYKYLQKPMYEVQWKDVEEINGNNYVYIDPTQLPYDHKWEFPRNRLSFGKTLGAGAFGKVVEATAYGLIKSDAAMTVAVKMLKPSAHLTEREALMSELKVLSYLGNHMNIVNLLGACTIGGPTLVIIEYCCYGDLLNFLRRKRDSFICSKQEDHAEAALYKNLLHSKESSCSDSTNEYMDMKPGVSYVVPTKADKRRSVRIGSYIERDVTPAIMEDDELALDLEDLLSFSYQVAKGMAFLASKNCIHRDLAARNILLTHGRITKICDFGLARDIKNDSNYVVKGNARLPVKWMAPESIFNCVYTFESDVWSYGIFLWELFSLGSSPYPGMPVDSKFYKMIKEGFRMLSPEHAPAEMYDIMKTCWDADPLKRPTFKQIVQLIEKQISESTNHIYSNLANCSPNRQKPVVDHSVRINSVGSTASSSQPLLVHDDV

Usually IC50 stands for the concentration that gives 50% inhibition. `CCN1CCN(Cc2ccc(NC(=O)c3ccc(C)c(NC(=O)c4cncc(-c5cccs5)c4)c3)cc2C(F)(F)F)CC1` [ALW-II-41-27]: the “inhibition of VEGFRII phosphorylation in living TT cells” value (“inhibition of VEGFRII phosphorylation” below) at VEGFRII was “able to inhibit”. The inhibition at 0.01 µM at RET/M918T was more than 30%. In the test on RET/C634Y, the “inhibition of RET/C634Y protein” value is listed as more than 30%. For the same molecule, the IC50 in the test with TPC-1 cells came out at 19.7 nM. The “score (%)” value is given as 0.5% at KinomeScan kinase panel [1] and “nb (Hits values higher than 30% were considered negative (no binding: nb))” at KinomeScan kinase panel [3] (PRKR). Also, the remaining binding at 10 µM is 3.6% at KinomeScan kinase panel [2]; 0.05% on KinomeScan kinase panel [4]; more than 30% at KinomeScan kinase panel [5] (PRKD3, 10 µM); 5% on KinomeScan kinase panel [6].
`CCN1CCN(Cc2ccc(NC(=O)c3ccc(C)c(/C=C/c4cnc5[nH]ccc5c4Cl)c3)cc2C(F)(F)F)CC1` [HG-6-63-01, (E)-3-(2-(4-chloro-1H-pyrrolo[2,3-b]pyridin-5-yl)vinyl)-N-(4-((4-ethylpiperazin-1-yl)methyl)-3-(trifluoromethyl)phenyl)-4-methylbenzamide]: the “inhibition of VEGFRII phosphorylation” value against VEGFRII was “able to inhibit”. Besides, on RET/M918T, the inhibition at 0.01 µM is more than 30%. The “inhibition of RET/C634Y protein” value in the test with RET/C634Y was more than 30%. In addition, the IC50 in the test with TPC-1 cells worked out at 9.8 nM. The “score (%)” value on KinomeScan kinase panel [1] is reported as 0.1%; at KinomeScan kinase panel [3] (PRKR), “nb (Hits values higher than 30% were considered negative (no binding: nb))”. In addition, the remaining binding at 10 µM at KinomeScan kinase panel [2] is 13%; on KinomeScan kinase panel [4], 0%; on KinomeScan kinase panel [5] (PRKD3, 10 µM), more than 30%; at KinomeScan kinase panel [6], more than 30%.
`CCN1CCN(Cc2ccc(NC(=O)c3ccc(C)c(C#Cc4cccnc4)c3)cc2C(F)(F)F)CC1` [XMD15-44]: on VEGFRII, the “inhibition of VEGFRII phosphorylation” value is recorded as “able to inhibit”. At RET/M918T, the inhibition at 0.01 µM was more than 30%. Further, the “inhibition of RET/C634Y protein” value in the test on RET/C634Y is more than 30%. For the same molecule, the IC50 with TPC-1 cells was found to be 37.1 nM. Moreover, the results for the “score (%)” value on KinomeScan kinase panel [1] and on KinomeScan kinase panel [3] (kinase PRKR) were 2.4% and 66%, respectively. In addition, the remaining binding at 10 µM came out at 2.7% on KinomeScan kinase panel [2]; 0% on KinomeScan kinase panel [4]; 22% at KinomeScan kinase panel [5] (kinase PRKD3, 10 µM); 29% at KinomeScan kinase panel [6].

(Values after paper PMC4457528, “Identification of Novel Small Molecule Inhibitors of Oncogenic RET Kinase” (PLoS ONE, 2015).)
